Like-named read-outs stand apart in the source and are kept apart here.
Experiments:
[1] = test system: Oxidoreduktase aus Metschnikowia zobellii; assay: Substrate spectrum (relative enzyme activity, standard assay of Example 5.1); type: biochemical
[2] = test system: rekombinante Oxidoreduktase aus Metschnikowia zobellii; type: biochemical
[3] = activity with 2-Oxo-4-phenyl-buttersäureethylester set to 100%, NADPH, 25 °C

| SMILES | Relative Aktivität % [1, 3] | Relative Aktivität % [1] | other results |
| --- | --- | --- | --- |
| CCOC(=O)C(=O)CCc1ccccc1 [Ethyl-2-oxo-4-phenyl-buttersäure] | 100% | – | des eingesetzten Substrats reduziert [2]: 92% |
| CC(=O)Cc1ccccc1 [1-Phenyl-2-propanon] | – | 15% | – |
| CCCCCCCC(=O)c1ccccc1 [Caprylophenon] | 0% | – | – |
| CCC(C)=O [Butan-2-on] | – | 0% | – |
| CCCC(=O)C(=O)OCC [Ethyl-2-oxovaleriansäure] | 100% | – | – |
| O=C1CCCCC1 [Cyclohexanon] | – | 3% | – |
| CC1CCCCC1=O (stereo not shown) [2-Methylcyclohexanon] | 8% | – | – |
| CCOC(=O)C(=O)c1ccccc1 [Ethylphenylglyoxylat] | 50% | – | des eingesetzten Substrats reduziert [2]: 50% |
| CCOC(=O)C1CCCC1=O (stereo not shown) [2-Oxo-cyclopentan carbonsäure-ethylester] | 8% | – | – |
| CCOC(=O)C(=O)c1ccccc1Cl [(2-chlorphenyl)-oxo-essigsäure ethylester] | 50% | – | – |
| COC(=O)CCCCC(=O)CC(=O)OC [3-Oxo-1,8-octandisäure-dimethylester] | 35% | – | – |
| CC(=O)c1ccccc1 [Acetophenon] | 0% | – | – |
| O=C(CCl)CCCl [1,4-Dichlor-butan-2-on] | – | 27% | – |
| CCOC(=O)CCCCC(=O)CCCl [8-Chlor-6-oxo-octansäure-ethylester] | 50% | – | des eingesetzten Substrats reduziert [2]: 55% |
| O=C(CCl)c1ccccc1 [2-Chlor-1-phenyl-ethan-1-on] | – | – | des eingesetzten Substrats reduziert ([2]; Nach 48 h, 25 °C, two-phase system): 75% |
| CCOC(=O)CC(=O)CCl [4-Chloracetessigsäureethylester] | – | 100% | – |
| CCOC(=O)C1CCCCC1=O (stereo not shown) [2-Oxo-cyclohexan-carbonsäure-ethylester] | 20% | – | – |
| CC1CCCC(=O)C1 (stereo not shown) [3-Methylcyclohexanon] | 8% | – | – |
| O=C(CCl)c1cccc(Cl)c1 [2-chlor-1-(3-chlor-pheny)-ethan-1-on] | – | 5% | – |
